Test results published in patent publication US6472348B1, “Pyridone derivatives and herbicides” (Kumiai Chemical Industry Co., Ltd., priority 1996, dated 2002).

Columns and labels:
Format in all cases: in vivo
green foxtail (Se) = experiment: Test Example 5: crop plant selectivity by upland field soil treatment (wheat), herbicidal effects; design: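 grade of growth control; 5 = at least 90%; 4 = 70 to 90%; 3 = 50 to 70%; 2 = 30 to 50%; 1 = 10 to 30%; 0 = under 10%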; conditions: dose 1.6 g ai/10a, 21st day after application
Summary of the method: (§1)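 Pots of sand sown with wheat and weeds (incl. Digitaria ciliaris, green foxtail, slender amaranth), seeds covered with soil, soil-applied treatment. Grown in greenhouse; herbicidal effect and crop phytotoxicity scored visually on day 21 after application against a rating scale.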

slender amaranth (Am) [1] = experiment: as above; design: scale not given here; conditions: dose 1.6 g ai/10a, 21st day after application
Summary of the method: as §1

pale smartweed (Po) [2] = experiment: as above; design: scale not given here; conditions: dose 1.6 g ai/10a, 21st day after application
Summary of the method: as §1

China jute (Ab) = experiment: as above; design: scale not given here; conditions: dose 1.6 g ai/10a, 21st day after application
Summary of the method: as §1

[3] = tested on: common lambsquarters (Ch); experiment: as above; design: scale not given here; conditions: dose 1.6 g ai/10a, 21st day after application
Summary of the method: as §1

Diaitaria ciliaris (Di) [4] = experiment: as above; conditions: dose 1.6 g ai/10a, 21st day after application
Method: (Test on Crop Plant Selectivity by Upland Field Soil Treatment)
In a plastic pot (surface area: 600 cm^2) filled with sand, wheat (Tr), Diaitaria ciliaris (Di), green foxtail (Se), pale smartweed (Po), slender amaranth (Am), common lambsquarters (Ch) and China jute (Ab) were sown and covered with soil. […] The plants were then cultured in a green house, and the evaluation of the herbicidal effects and phytotoxicity was conducted on the 21st day after the application in accordance with the standards as identified in Table 47. Symbol—represents “not tested”.

wheat (Tr) = experiment: Test Example 5: crop plant selectivity by upland field soil treatment (wheat), phytotoxicity; design: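 grade of crop injury; 5 = at least 90%; 4 = 70 to 90%; 3 = 50 to 70%; 2 = 30 to 50%; 1 = 10 to 30%; 0 = under 10%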; conditions: dose 1.6 g ai/10a, 21st day after application
Summary of the method: as §1

rice flatsedge (Ci) [5] = experiment: Test Example 2: herbicidal effects by upland field soil treatment; conditions: 100 g of the active ingredient per 10 ares, evaluated on the 21st day after application;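 also: grade of growth control; 5 = at least 90%; 4 = 70 to 90%; 3 = 50 to 70%; 2 = 30 to 50%; 1 = 10 to 30%; 0 = under 10%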
Source text: (§2) (Test on Herbicidal Effects by Upland Field Soil Treatment)

Digitaria ciliaris (Di) = experiment: as above; conditions: 100 g of the active ingredient per 10 ares, evaluated on the 21st day after application
Source text: as §2

slender amaranth (Am) [6] = experiment: as above; conditions: 100 g of the active ingredient per 10 ares, evaluated on the 21st day after application
Source text: as §2

barnyardgrass (Ec) [7] = experiment: as above; conditions: 100 g of the active ingredient per 10 ares, evaluated on the 21st day after application
Source text: as §2

pale smartweed (Po) [8] = experiment: as above; conditions: 100 g of the active ingredient per 10 ares, evaluated on the 21st day after application
Source text: as §2

[9] = tested on: common lambsquarters (Ch); experiment: as above; conditions: 100 g of the active ingredient per 10 ares, evaluated on the 21st day after application
Source text: as §2

barnyardgrass (Ec) [10] = experiment: Test Example 1: herbicidal effects by paddy field soil treatment; conditions: 100 g of the active ingredient per 10 ares, 21st day after the application, index 0-5 of Table 47;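 also: grade of growth control; 5 = at least 90%; 4 = 70 to 90%; 3 = 50 to 70%; 2 = 30 to 50%; 1 = 10 to 30%; 0 = under 10%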
Summary of the method: (§3)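 Scoring of herbicidal effect came 21 days after application of 100 g active ingredient per 10 ares to flooded (3 cm) paddy-soil pots sown with barnyardgrass, monochoria and bulrush, kept in a greenhouse.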

bulrush (Sc) = experiment: as above; conditions: 100 g of the active ingredient per 10 ares, 21st day after the application, index 0-5 of Table 47;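 also: grade of growth control; 5 = at least 90%; 4 = 70 to 90%; 3 = 50 to 70%; 2 = 30 to 50%; 1 = 10 to 30%; 0 = under 10%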
Summary of the method: as §3

monochoria (Mo) = experiment: as above; conditions: 100 g of the active ingredient per 10 ares, 21st day after the application, index 0-5 of Table 47;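 also: grade of growth control; 5 = at least 90%; 4 = 70 to 90%; 3 = 50 to 70%; 2 = 30 to 50%; 1 = 10 to 30%; 0 = under 10%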
Summary of the method: as §3

rice flatsedge (Ci) [11] = experiment: Test Example 3: herbicidal effects by upland field foliage treatment; design: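 grade of growth control; 5 = at least 90%; 4 = 70 to 90%; 3 = 50 to 70%; 2 = 30 to 50%; 1 = 10 to 30%; 0 = under 10%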; conditions: 100 g active ingredient per 10 ares, evaluated 14th day after treatment
Summary of the method: (§4)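 Sowing into sand pots with a 120 cm^2 surface, followed by soil covering and 2 weeks of greenhouse growth, preceded the leaf treatment. Scoring of weed control took place on the 14th day afterwards according to set evaluation criteria.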

slender amaranth (Am) [12] = experiment: as above; design: scale not given here; conditions: 100 g active ingredient per 10 ares, evaluated 14th day after treatment
Summary of the method: as §4

Diaitaria ciliaris (Di) [13] = experiment: as above; design: scale not given here; conditions: 100 g active ingredient per 10 ares, evaluated 14th day after treatment
Summary of the method: as §4

barnyardgrass (Ec) [14] = experiment: as above; design: scale not given here; conditions: 100 g active ingredient per 10 ares, evaluated 14th day after treatment
Summary of the method: as §4

pale smartweed (Po) [15] = experiment: as above; design: scale not given here; conditions: 100 g active ingredient per 10 ares, evaluated 14th day after treatment
Summary of the method: as §4

[16] = tested on: common lambsquarters (Ch); experiment: as above; design: scale not given here; conditions: 100 g active ingredient per 10 ares, evaluated 14th day after treatment
Summary of the method: as §4

## Cn1c(C(F)(F)F)ccc(-c2cc3c(cc2F)OCC(=O)N3)c1=O [Compound No. 2-4, 3-(7-fluoro-2,3-dihydro-1,4-benzoxazin-3-on-6-yl)-1-methyl-6-trifluoromethyl-2(1H)-pyridone]
Green foxtail (Se)
  Herbicidal effects Se: 5
Slender amaranth (Am) [1]
  Herbicidal effects Am: 5
Pale smartweed (Po) [2]
  Herbicidal effects Po: 5
China jute (Ab)
  Herbicidal effects Ab: 3
[3]
  Herbicidal effects Ch: 4
Diaitaria ciliaris (Di) [4]
  Herbicidal effects Di: 5
Wheat (Tr)
  Phytotoxicity Tr: 0
Rice flatsedge (Ci) [5]
  Herbicidal effects Ci: 5
Digitaria ciliaris (Di)
  Herbicidal effects Di: 5
Slender amaranth (Am) [6]
  Herbicidal effects Am: 5
Barnyardgrass (Ec) [7]
  Herbicidal effects Ec: 5
Pale smartweed (Po) [8]
  Herbicidal effects Po: 5
[9]
  Herbicidal effects Ch: 5
Barnyardgrass (Ec) [10]
  Herbicidal effects Ec: 5
Bulrush (Sc)
  Herbicidal effects Sc: 5
Monochoria (Mo)
  Herbicidal effects Mo: 5
Rice flatsedge (Ci) [11]
  Herbicidal effects Ci: 5
Slender amaranth (Am) [12]
  Herbicidal effects Am: 5
Diaitaria ciliaris (Di) [13]
  Herbicidal effects Di: 5
Barnyardgrass (Ec) [14]
  Herbicidal effects Ec: 5
Pale smartweed (Po) [15]
  Herbicidal effects Po: 5
[16]
  Herbicidal effects Ch: 5
